These results are taken from patent US20060135773A1, “Trisubstituted nitrogen modulators of tyrosine phosphatases” (priority 2004, published 2006).

The target of data set [1] is T1, PTP-1B (Homo sapiens, UniProt P18031).
T1 construct: PTP-1B (purified, 1 mg/mL) as a 1:250 dilution
T1 sequence (P18031 1-321 limits assumed): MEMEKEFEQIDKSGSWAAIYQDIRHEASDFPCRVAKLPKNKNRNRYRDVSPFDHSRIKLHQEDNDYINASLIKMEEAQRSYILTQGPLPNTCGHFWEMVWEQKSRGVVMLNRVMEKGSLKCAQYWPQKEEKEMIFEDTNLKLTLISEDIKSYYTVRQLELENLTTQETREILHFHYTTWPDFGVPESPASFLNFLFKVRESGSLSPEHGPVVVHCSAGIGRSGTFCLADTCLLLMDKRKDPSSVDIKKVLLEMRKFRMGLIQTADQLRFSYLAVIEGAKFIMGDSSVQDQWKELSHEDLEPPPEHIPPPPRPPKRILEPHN
As to the kind of experiment: pNPP tyrosine phosphatase inhibition assay, PTP-1B. Type of data set: biochemical. The settings on record: pNPP assay, PTP-1B; read-out: Activity Class (IC50 ranges). The gist of the method:
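Test compounds were screened at two final levels, 31.3 and 10 µM, against 4 µg/mL purified PTP-1B. The substrate was 10 mM p-nitrophenyl phosphate, with incubation for 10 min at 30°C before a K2CO3 quench. Activity was taken from A405.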

The compound `O=P(O)(O)C(F)(F)c1ccc(CN(Cc2ccc(C(F)(F)P(=O)(O)O)cc2)S(=O)(=O)c2ccccc2Cl)cc1` [Compound 5, {[4-({(2-Chloro-benzenesulfonyl)-[4-(difluoro-phosphono-methyl)-benzyl]-amino}-methyl)-phenyl]-difluoro-methyl}-phosphonic acid] gave a melting point of 170 to 172 °C. Also, in data set [1], the IC50 lay in the range of 100 to 249 nM.
Taken in the same sequence, the figures for `O=P(O)(O)C(F)(F)c1ccc(CN(Cc2ccc(C(F)(F)P(=O)(O)O)cc2)S(=O)(=O)CCc2ccccc2)cc1` [Compound 9, [(4-{[[4-(Difluoro-phosphono-methyl)-benzyl]-(2-phenyl-ethanesulfonyl)-amino]-methyl}-phenyl)-difluoro-methyl]-phosphonic acid] were 181 to 183 °C and 250 to 499 nM.
Taken in the same sequence, the figures for `O=C(c1ccccc1)N(Cc1ccc(C(F)(F)P(=O)(O)O)cc1)Cc1ccc(C(F)(F)P(=O)(O)O)cc1` [Compound 11, {[4-({Benzoyl-[4-(difluoro-phosphono-methyl)-benzyl]-amino}-methyl)-phenyl]-difluoro-methyl}-phosphonic acid] were 87 to 89 °C and 2500 to 25000 nM.
Taken in the same sequence, the figures for `O=C(NCc1ccccc1)N(Cc1ccc(C(F)(F)P(=O)(O)O)cc1)Cc1ccc(C(F)(F)P(=O)(O)O)cc1` [Compound 13, [(4-{3-Benzyl-1-[4-(difluoro-phosphono-methyl)-benzyl]-ureidomethyl}-phenyl)-difluoro-methyl]-phosphonic acid] were 124 to 127 °C and more than 25000 nM.
The compound `CN(Cc1ccc(C(F)(F)P(=O)(O)O)cc1)Cc1ccc(C(F)(F)P(=O)(O)O)cc1` [Compound 15, {[4-({[4-(Difluoro-phosphono-methyl)-benzyl]-methyl-amino}-methyl)-phenyl]-difluoro-methyl}-phosphonic acid] yielded a melting point of 268 to 270 °C. In data set [1], the IC50 was more than 25000 nM.
`O=C(OCc1ccccc1)N(Cc1ccc(C(F)(F)P(=O)(O)O)cc1)Cc1ccc(C(F)(F)P(=O)(O)O)cc1` [Compound 17, {[4-({Benzyloxycarbonyl-[4-(difluoro-phosphono-methyl)-benzyl]-amino}-methyl)-phenyl]-difluoro-methyl}-phosphonic acid] showed a melting point of 106 to 108 °C. The IC50 in data set [1] lay in the range of 2500 to 25000 nM.
In the case of `COc1ccccc1S(=O)(=O)N(Cc1ccc(-c2cccc(C#N)c2)cc1)Cc1ccc(C(F)(F)P(=O)(OCOC(=O)C(C)(C)C)OCOC(=O)C(C)(C)C)c(Cl)c1` [Compound 226, 2,2-Dimethyl-propionic acid [(2-chloro-4-{[(3′-cyano-biphenyl-4-ylmethyl)-(2-methoxy-benzenesulfonyl)-amino]-methyl}-phenyl)-difluoro-methyl]-(2,2-dimethyl-propionyloxymethoxy)-phosphinoyloxymethyl ester], the IC50 in data set [1] was more than 25000 nM.
Same read-out and setting: in the case of `COc1ccccc1S(=O)(=O)N(Cc1ccc(-c2cccc(C#N)c2)cc1)Cc1ccc(C(F)(F)P(=O)(O)OCOC(=O)C(C)(C)C)c(Cl)c1` [Compound 227, 2,2-Dimethyl-propionic acid [(2-chloro-4-{[(3′-cyano-biphenyl-4-ylmethyl)-(2-methoxy-benzenesulfonyl)-amino]-methyl}-phenyl)-difluoro-methyl]-hydroxy-phosphinoyloxymethyl ester] it was more than 25000 nM.
For `O=P(O)(O)C(F)(F)c1ccc(CN(Cc2ccccc2-c2ccccc2)S(=O)(=O)c2cnccc2I)cc1Cl` [Compound 230, [(4-{[Biphenyl-2-ylmethyl-(4-iodo-pyridine-3-sulfonyl)-amino]-methyl}-2-chloro-phenyl)-difluoro-methyl]-phosphonic acid], in data set [1], the IC50 lay within 100 to 249 nM.
The same measure, in the same setting: in the case of `COC(=O)c1ccc(CN(Cc2ccc(C(F)(F)P(=O)(O)O)c(Cl)c2)S(=O)(=O)c2ccccc2OC)cc1` [Compound 231, 4-{[[3-Chloro-4-(difluoro-phosphono-methyl)-benzyl]-(2-methoxy-benzenesulfonyl)-amino]-methyl}-benzoic acid methyl ester] it was 250 to 499 nM; in that of `O=P(O)(O)C(F)(F)c1ccc(CN(Cc2ccc(C(F)(F)P(=O)(O)O)c(Cl)c2)C2CCc3ccccc32)cc1Cl` (stereo not shown) [Compound 232, {[2-Chloro-4-({[3-chloro-4-(difluoro-phosphono-methyl)-benzyl]-indan-1-yl-amino}-methyl)-phenyl]-difluoro-methyl}-phosphonic acid], 250 to 499 nM.
The same measure, in the same setting: next, `COc1ccccc1S(=O)(=O)N(Cc1ccc(C(=O)O)cc1)Cc1ccc(C(F)(F)P(=O)(O)O)c(Cl)c1` [Compound 233, 4-{[[3-Chloro-4-(difluoro-phosphono-methyl)-benzyl]-(2-methoxy-benzenesulfonyl)-amino]-methyl}-benzoic acid]: 100 to 249 nM.
The same measure, in the same setting: next, `COC(=O)c1ccc(CN(Cc2ccc(C(F)(F)P(=O)(O)O)c(Cl)c2)S(=O)(=O)c2ccccc2)cc1` [Compound 234, 4-({Benzenesulfonyl-[3-chloro-4-(difluoro-phosphono-methyl)-benzyl]-amino}-methyl)-benzoic acid methyl ester]: 250 to 499 nM.
Turning to `O=C(O)c1ccc(CN(Cc2ccc(C(F)(F)P(=O)(O)O)c(Cl)c2)S(=O)(=O)c2ccccc2)cc1` [Compound 235, 4-({Benzenesulfonyl-[3-chloro-4-(difluoro-phosphono-methyl)-benzyl]-amino}-methyl)-benzoic acid], the IC50 in data set [1] fell in the range of 250 to 499 nM.
The same measure, in the same setting: in the case of “(4-{[(4-Cyano-benzyl)-(2-methoxy-benzenesulfonyl)-amino]-methyl}-phenyl)-difluoro-acetic acid [Compound 130]” it was more than 25000 nM; in that of “Methyl 2-(3-{4-[({[4-(difluorophosphonomethyl)-3-chlorophenyl]methyl}[(2-methoxyphenyl)sulfonyl]amino)methyl]phenyl}phenyl)acetate [Compound 191]”, less than 99 nM; in that of “Methyl 3-{4-[({[4-(difluorophosphonomethyl)-3-chlorophenyl]methyl}[(2-methoxyphenyl)sulfonyl]amino)methyl]phenyl}-5-bromobenzoate [Compound 194]”, 250 to 499 nM.
The same measure, in the same setting: in the case of “Methyl 5-{4-[({[4-(difluorophosphonomethyl)-3-chlorophenyl]methyl}[(2-methoxyphenyl)sulfonyl]amino)methyl]phenyl}-2-methoxybenzoate [Compound 205]” it was 100 to 249 nM; in that of “[(2-Chloro-4-{[(2-chloro-4-fluoro-benzenesulfonyl)-(3′-cyano-biphenyl-4-ylmethyl)-amino]-methyl}-phenyl)-difluoro-methyl]-phosphonic acid [Compound 164]”, less than 99 nM; in that of “[(2-Chloro-4-{[(4′-cyano-biphenyl-4-ylmethyl)-(2-methoxy-benzenesulfonyl)-amino]-methyl}-phenyl)-difluoro-methyl]-phosphonic acid [Compound 157]”, 100 to 249 nM.
The same measure, in the same setting: in the case of “[(4-{[(3′-Carbamoyl-biphenyl-2-ylmethyl)-(2-methoxy-benzenesulfonyl)-amino]-methyl}-2-chloro-phenyl)-difluoro-methyl]-phosphonic acid [Compound 187]” it was less than 99 nM.
As to “{[4-(difluorophosphonomethyl)-3-chlorophenyl]methyl}(cycloheptylmethyl)[(2-methoxyphenyl)sulfonyl]amine [Compound 202]”, the IC50 in data set [1] fell in the range of 100 to 249 nM.
Same read-out and setting: in the case of “{[4-(difluorophosphonomethyl)-3-chlorophenyl]methyl}(cyclohexylmethyl)[(2-methoxyphenyl)sulfonyl]amine [Compound 203]” it was 250 to 499 nM; in that of “{[4-(difluorophosphonomethyl)-3-chlorophenyl]methyl}[(2 methoxyphenyl)sulfonyl]{[2-(3-methylthiophenyl)phenyl]methyl}amine [Compound 206]”, less than 99 nM; in that of “{[4-(difluorophosphonomethyl)-3-chlorophenyl]methyl}[(2-(2,3-dihydrobenzo[b]furan-5-yl)phenyl)methyl][(2-methoxyphenyl)sulfonyl]amine [Compound 204]”, less than 99 nM.
On the same count and under the same terms, in the case of “{[4-(difluorophosphonomethyl)-3-chlorophenyl]methyl}[(2-ethoxyphenyl)methyl][(2-methoxyphenyl)sulfonyl]amine [Compound 212]” it was 250 to 499 nM; in that of “{[4-(difluorophosphonomethyl)-3-chlorophenyl]methyl}[(2-methoxyphenyl)sulfonyl](2-piperidylmethyl)amine [Compound 213]”, 2500 to 25000 nM.
For the compound “{[4-(difluorophosphonomethyl)-3-chlorophenyl]methyl}[(2-methoxyphenyl)sulfonyl](3-piperidylmethyl)amine [Compound 209]”, the IC50 in data set [1] was in the range of 2500 to 25000 nM.
Consider “{[4-(difluorophosphonomethyl)-3-chlorophenyl]methyl}[(2-methoxyphenyl)sulfonyl]{[2-(4-methylphenyl)phenyl]methyl}amine [Compound 198]”, for which the IC50 in data set [1] was less than 99 nM.
Still for that read-out and setting: in the case of “{[4-(difluorophosphonomethyl)-3-chlorophenyl]methyl}{[2-(3-ethylphenyl)phenyl]methyl}[(2-methoxyphenyl)sulfonyl]amine [Compound 196]” it was 100 to 249 nM; in that of “{[4-(difluorophosphonomethyl)-3-chlorophenyl]methyl}{[2-(4-methoxyphenyl)phenyl]methyl}[(2-methoxyphenyl)sulfonyl]amine [Compound 190]”, less than 99 nM.

As a reminder, the IC50 is the midpoint of a concentration-inhibition curve. Usually melting point stands for the temperature of the solid-liquid transition.
